A short description of series [1]: Double-blind 6-week intake test of test capsules with walking exercise; rate of body fat and body weight measured. The class given is in vivo, human. Particulars: by intake of astaxanthin, 6 weeks. Here is the method: This Hematococcus alga extract was formed into a capsule containing 6 mg of astaxanthin in terms of the free form (test capsule) and used for test. As placebo capsule (control capsule), a capsule containing 0 mg of astaxanthin and having the same shape was used for test.
32 persons to be tested who were healthy women 23-57 years old were divided at random into two groups i.e. test and control groups, each consisting of 16 persons. The allocation of persons to be tested into test and control groups was conducted in a double-blind method not so as to know persons to be tested and persons participated in test the fact that each of persons to be tested belongs to which group.
Each of persons to be tested in test group took two test capsules a day after supper while each of persons in control group took two placebo capsules a day after supper. The intake period of term (test period of term) was 6 weeks. The rate of body fat and body weight were measured at the beginning (0 week) and the completion (6 weeks) of test for all persons. The rate of body fat was measured with a weighing meter [TBF-511, a product of Tanita Co. Ltd.]
Exercise loaded on all persons to be tested in test period of term was walking. The quantity of exercise was determined by a maximum heart rate countering method. […]

The conditions of series [2]: Takahashi et al.; cited from earlier work.
For series [3] the following is noted: cited from earlier work.

Molecules are shown by their SMILES.

As to `CC1=C(/C=C/C(C)=C/C=C/C(C)=C/C=C/C=C(C)/C=C/C=C(C)/C=C/C2=C(C)C(=O)C(O)CC2(C)C)C(C)(C)CC(O)C1=O` (stereo not drawn) [astaxanthin, 3,3′-dihydroxy-β, β-carotene-4,4′-dione], in series [1], the “rate of body fat (in words)” value was “decreases”. For the same molecule, the mutagenicity result in series [2] is “has not been observed having any mutagenicity”. Moreover, the “antioxidative action, times as strong as vitamin E” value in series [3] (relative to vitamin E) is on record as “about 1000 times”. Further, in series [3] (relative to β-carotene), the “antioxidative action, times as strong as β-carotene” value was “about 40 times”.

The values above are taken from patent US20090047304A1, “Composition For Body Fat Reduction” (priority 2004, published 2009).
